Where two headings read alike, the source gives them in different places.
System: NHACs
Experiment: calcium flux assay
Type: cell-based, human
Conditions: for Emax: read-out: (A) % Efficacy
How it was run: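 FLIPR fluorescence (ex 470–495 nm, em 515–575 nm) was read before and after compound dispense at the indicated dose. Chondrocytes (NHACs), 2000 cells/well, had been dye-loaded 24 h after plating with Calcium 5 in HBSS/HEPES plus 5 mM probenecid, 1 h, room temperature.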

Compound	EC50 (Homo sapiens)	EC50	Emax (Homo sapiens)	(A) % Efficacy
Cc1cc([C@@H]2[C@@H]3O[C@@H](C[C@H]3O)[C@@H]2C(=O)Nc2cnc(Cl)c(Cl)c2)ccn1 (single isomer, unassigned) [Example 7]	> 50 µM		0%	
Nc1ncc([C@H]2[C@H]3O[C@H](C[C@@H]3F)[C@H]2C(=O)Nc2ccc(Cl)c(Cl)c2)cn1 [Example 20, (1R,2S,3S,4R,5S)-3-(2-aminopyrimidin-5-yl)-N-(3,4-dichlorophenyl)-5-fluoro-7-oxabicyclo[2.2.1]heptane-2-carboxamide]	> 50 µM		5%	
Cc1cc([C@H]2[C@H]3O[C@H](C[C@@H]3F)[C@H]2C(=O)Nc2cnc(Cl)c(Cl)c2)ccn1 [Example 18, (1R,2S,3S,4R,5S)-N-(5,6-dichloropyridin-3-yl)-5-fluoro-3-(2-methylpyridin-4-yl)-7-oxabicyclo[2.2.1]heptane-2-carboxamide]	> 50 µM		0%	
COc1ccc(NC(=O)[C@H]2[C@@H](c3ccnc(C)c3)[C@H]3O[C@@H]2C[C@H]3F)cn1 [Example 14, (1R,2S,3S,4R,5R)-5-fluoro-N-(6-methoxypyridin-3-yl)-3-(2-methylpyridin-4-yl)-7-oxabicyclo[2.2.1]heptane-2-carboxamide]	8.3 µM		115%	
Cc1ncc([C@H]2[C@H]3O[C@H](C[C@@H]3O)[C@H]2C(=O)Nc2ccc(Cl)c(Cl)c2)cn1 [Example 56, (1R,2S,3S,4R,5S)—N-(3,4-dichlorophenyl)-5-hydroxy-3-(2-methylpyrimidin-5-yl)-7-oxabicyclo[2.2.1]heptane-2-carboxamide]	> 50 µM		0%	
Nc1ncc([C@H]2[C@H]3O[C@H](C[C@@H]3O)[C@H]2C(=O)Nc2ccc(Cl)c(Cl)c2)cn1 [Example 60, (1R,2S,3S,4R,5S)-3-(2-aminopyrimidin-5-yl)-N-(3,4-dichlorophenyl)-5-hydroxy-7-oxabicyclo[2.2.1]heptane-2-carboxamide]	> 50 µM		2%	
Cc1cc([C@H]2[C@H]3O[C@H](C[C@@H]3O)[C@H]2C(=O)Nc2cc(Cl)c(Cl)cn2)ccn1 [Example 4, (1R,2S,3S,4R,5S)-N-(4,5-dichloropyridin-2-yl)-5-hydroxy-3-(2-methylpyridin-4-yl)-7-oxabicyclo[2.2.1]heptane-2-carboxamide]	> 50 µM		28%	
Cc1ncc([C@H]2[C@H]3O[C@H]([C@@H]4C[C@@H]43)[C@H]2C(=O)Nc2ccc(Cl)c(Cl)c2)cn1 [Example 42, (1S,2S,4R,5R,6S,7S)—N-(3,4-dichlorophenyl)-7-(2-methylpyrimidin-5-yl)-8-oxatricyclo[3.2.1.0^2,4]octane-6-carboxamide]	18 µM		57%	
Cc1cc([C@H]2[C@H]3O[C@H](C[C@@H]3F)[C@H]2C(=O)Nc2cccc(C(F)(F)F)c2)ccn1 [Example 17, (1R,2S,3S,4R,5S)-5-fluoro-3-(2-methylpyridin-4-yl)-N-[3-(trifluoromethyl)phenyl]-7-oxabicyclo[2.2.1]heptane-2-carboxamide]	> 50 µM		0%	
Nc1ncc([C@H]2[C@H]3O[C@H]([C@@H]4C[C@@H]43)[C@H]2C(=O)Nc2ccc(Cl)c(Cl)c2)cn1 [Example 39, (1S,2S,4R,5R,6S,7S)-7-(2-aminopyrimidin-5-yl)-N-(3,4-dichlorophenyl)-8-oxatricyclo[3.2.1.0^2,4]octane-6-carboxamide]	0.53 µM		40%	
Cc1cc([C@H]2[C@H]3O[C@H](C[C@H]3F)[C@H]2C(=O)Nc2ccc(Cl)c(Cl)c2)ccn1 [Example 13, (1R,2S,3S,4R,5R)-N-(3,4-dichlorophenyl)-5-fluoro-3-(2-methylpyridin-4-yl)-7-oxabicyclo[2.2.1]heptane-2-carboxamide]	4.5 µM		68%	
O=C(Nc1cnc(Cl)c(Cl)c1)[C@@H]1[C@@H]2O[C@@H]([C@H]3C[C@H]32)[C@@H]1c1ccncc1 [Example 43a, (1S,2S,4R,5R,6S,7S)—N-(5,6-dichloropyridin-3-yl)-7-(pyridin-4-yl)-8-oxatricyclo[3.2.1.0^24]octane-6-carboxamide]		> 50 µM		0%
Cc1cc([C@H]2[C@@H]3C[C@@H](O)C(O3)[C@H]2C(=O)Nc2cccc(C(F)(F)F)c2)ccn1 (stereo in doubt) [Example 9, (1R,2S,3S,4S,6R)-6-hydroxy-3-(2-methylpyridin-4-yl)-N-[3-(trifluoromethyl)phenyl]-7-oxabicyclo[2.2.1]heptane-2-carboxamide]	> 50 µM		0%	
O=C(Nc1ccc(Cl)c(Cl)c1)[C@H]1[C@@H](c2ccnc(F)c2F)[C@H]2O[C@@H]1C[C@@H]2O [Example 59, (1R,2S,3S,4R,5S)—N-(3,4-dichlorophenyl)-3-(2,3-difluoropyridin-4-yl)-5-hydroxy-7-oxabicyclo[2.2.1]heptane-2-carboxamide]	1.2 µM		254%	
O=C(Nc1ccc(Cl)c(Cl)c1)[C@H]1[C@@H](c2ccnc(F)c2)[C@H]2O[C@@H]1C[C@@H]2F [Example 22, (1R,2S,3S,4R,5S)-N-(3,4-dichlorophenyl)-5-fluoro-3-(2-fluoropyridin-4-yl)-7-oxabicyclo[2.2.1]heptane-2-carboxamide]	4.2 µM		128%	

Continued, in another order:

EC50 (Homo sapiens)	EC50	Compound	Emax (Homo sapiens)	(A) % Efficacy
5 µM		O=C(Nc1ccc(Cl)c(Cl)c1)[C@H]1[C@@H]2O[C@@H]([C@H]3C[C@H]32)[C@@H]1c1ccnc(F)c1F (racemic) [Example 122, rac-(1S,2S,4R,5R,6R,7S)—N-(3,4-dichlorophenyl)-7-(2,3-difluoropyridin-4-yl)-8-oxatricyclo[3.2.1.0^2,4]octane-6-carboxamide]	32%	
28 µM		O=C(Nc1ccc(Cl)c(Cl)c1)[C@@H]1[C@@H](c2cc(F)ncc2F)[C@H]2O[C@@H]1C[C@@H]2O [Example 147, (1R,2R,3S,4R,5S)—N-(3,4-dichlorophenyl)-3-(2,5-difluoropyridin-4-yl)-5-hydroxy-7-oxabicyclo[2.2.1]heptane-2-carboxamide]	284%	
16 µM		Cc1ncc([C@H]2[C@H]3O[C@H]([C@@H]4C[C@@H]43)[C@@H]2C(=O)Nc2ccc(Cl)c(Cl)c2)cn1 [Example 135, (1S,2S,4R,5R,6R,7S)—N-(3,4-dichlorophenyl)-7-(2-methylpyrimidin-5-yl)-8-oxatricyclo[3.2.1.0^2,4]octane-6-carboxamide]	237%	
> 50 µM		O=C(Nc1cnc(Cl)c(Cl)c1)[C@@H]1[C@@H](c2ccncc2)[C@H]2O[C@@H]1C[C@@H]2O [Example 87, (1R,2R,3S,4R,5S)—N-(5,6-dichloropyridin-3-yl)-5-hydroxy-3-(pyridin-4-yl)-7-oxabicyclo[2.2.1]heptane-2-carboxamide]	14%	
26 µM		CO[C@H]1C[C@H]2O[C@@H]1[C@H](c1ccnc(C)c1)[C@H]2C(=O)Nc1ccc(Cl)c(Cl)c1 [Example 155, (1R,2R,3S,4R,5S)—N-(3,4-dichlorophenyl)-5-methoxy-3-(2-methylpyridin-4-yl)-7-oxabicyclo[2.2.1]heptane-2-carboxamide]	262%	
19 µM		O=C(Nc1cccc(C(F)(F)F)c1)[C@H]1[C@@H]2O[C@@H]([C@H]3C[C@H]32)[C@@H]1c1ccnc(F)c1 [Example 134, (1S,2S,4R,5R,6R,7S)-7-(2-fluoropyridin-4-yl)-N-(3-(trifluoromethyl)phenyl)-8-oxatricyclo[3.2.1.0^2,4]octane-6-carboxamide]	249%	
> 50 µM		Cc1cc([C@H]2[C@H]3O[C@H](C[C@@H]3O)[C@@H]2C(=O)Nc2ccc(-c3ccccc3F)c(Cl)c2)ccn1 [Example 78, (1R,2R,3S,4R,5S)—N-(2-chloro-2′-fluoro-[1,1′-biphenyl]-4-yl)-5-hydroxy-3-(2-methylpyridin-4-yl)-7-oxabicyclo[2.2.1]heptane-2-carboxamide]	70%	
10 µM		O=C(Nc1ccc(Cl)c(Cl)c1)[C@H]1[C@@H]2O[C@@H]([C@H]3C[C@H]32)[C@@H]1c1cnc(F)nc1 [Example 129, (1S,2S,4R,5R,6R,7S)—N-(3,4-dichlorophenyl)-7-(2-fluoropyrimidin-5-yl)-8-oxatricyclo[3.2.1.0^2,4]octane-6-carboxamide]	146%	
30 µM		CN(C)c1ncc([C@H]2[C@H]3O[C@H](C[C@@H]3O)[C@@H]2C(=O)Nc2ccc(Cl)c(Cl)c2)cn1 [Example 144, (1R,2R,3S,4R,5S)—N-(3,4-dichlorophenyl)-3-(2-(dimethylamino)pyrimidin-5-yl)-5-hydroxy-7-oxabicyclo[2.2.1]heptane-2-carboxamide]	183%	
> 50 µM		Nc1ncc([C@H]2[C@H]3O[C@H](C[C@@H]3O)[C@@H]2C(=O)Nc2ccc(Cl)c(Cl)c2)cn1 [Example 143, (1R,2R,3S,4R,5S)-3-(2-aminopyrimidin-5-yl)-N-(3,4-dichlorophenyl)-5-hydroxy-7-oxabicyclo[2.2.1]heptane-2-carboxamide]	0%	
29 µM		Cc1cc([C@H]2[C@H]3O[C@H](C[C@H]3F)[C@@H]2C(=O)Nc2ccn(C)n2)ccn1 [Example 101, (1R,2R,3S,4R,5R)-5-fluoro-N-(1-methyl-1H-pyrazol-3-yl)-3-(2-methylpyridin-4-yl)-7-oxabicyclo[2.2.1]heptane-2-carboxamide]	62%	
28 µM		O=C(Nc1ccc(Cl)c(Cl)c1)[C@@H]1[C@@H](c2ccnc(F)c2)[C@H]2O[C@@H]1C[C@@H]2F [Example 111, (1R,2R,3S,4R,5S)—N-(3,4-dichlorophenyl)-5-fluoro-3-(2-fluoropyridin-4-yl)-7-oxabicyclo[2.2.1]heptane-2-carboxamide]	87%	
26 µM		Cc1cc([C@H]2[C@H]3O[C@H](C[C@@H]3O)[C@@H]2C(=O)Nc2ccc(Cl)c(Cl)c2)ccn1 (racemic) [Example 77, rac-(1R,2R,3S,4R,5S)—N-(3,4-dichlorophenyl)-5-hydroxy-3-(2-methylpyridin-4-yl)-7-oxabicyclo[2.2.1]heptane-2-carboxamide]	49%	
